This note sets out measurements from patent US11541055B2, “Inhibitors of human immunodeficiency virus replication” (ViiV Healthcare UK (No. 5) LIMITED, priority 2018, dated 2023).

For data set [1], the system named is recombinant NL4-3 virus (Renilla luciferase) in MT-2 cells. Kind of data set: HIV cell culture assay (antiviral activity, luciferase readout). It counts as cell-based. Particulars: Renilla, NL43. In short, it runs like this: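 Antiviral EC50 was derived via the median effect equation from luciferase signal. The signal came from MT-2 cultures infected for 4–5 days with a nef-deleted, Renilla luciferase-expressing NL4-3 reporter virus (made in 293T cells) in the presence of compound dilutions.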

Data set [2] in a line: Compound cytotoxicity, XTT-based colorimetric assay. The note with it: human; uninfected MT2 cells, day 4, XTT. It is filed as cell-based. Put shortly: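 Run under the antiviral-assay protocol but without virus. Viability was read on day 4 and CC50 values were derived from the readout.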
On the technique in general: Formazan colour is commonly taken as a measure of viable cells.

A value given as a limit tells only on which side of the number the result lay.

On to `Cn1nc(NS(C)(=O)=O)c2c(Cl)ccc(-n3c([C@H](Cc4cc(F)cc(F)c4)NC(=O)Cn4nc(C(F)F)c5c4C(F)(F)[C@@H]4C[C@H]54)nc4cc(-c5ccnnc5)ccc4c3=O)c21` (atropisomer, axis not shown; (P)) [Example 31, N—((S)-1-((3P)-3-(4-chloro-1-methyl-3-(methylsulfonamido)-1H-indazol-7-yl)-4-oxo-7-(pyridazin-4-yl)-3,4-dihydroquinazolin-2-yl)-2-(3,5-difluorophenyl)ethyl)-2-((3bS,4aR)-3-(difluoromethyl)-5,5-difluoro-3b,4,4a,5-tetrahydro-1H-cyclopropa[3,4]cyclopenta[1,2-c]pyrazol-1-yl)acetamide], for which the EC50 in data set [1] was found to be 0.29 nM. Further, the half-maximal cytotoxic concentration (CC50) at 4 days in data set [2] was over 500 nM.

In the case of `Cn1nc(NS(C)(=O)=O)c2c(Cl)ccc(-n3c([C@H](Cc4cc(F)cc(F)c4)NC(=O)Cn4nc(C(F)F)c5c4C(F)(F)[C@@H]4C[C@H]54)nc4cc(-c5cccc(S(=O)(=O)C(C)(C)C)c5)ccc4c3=O)c21` (atropisomer, axis not shown; (P)) [Example 33, N—((S)-1-(7-(3-(tert-butylsulfonyl)phenyl)-(3P)-3-(4-chloro-1-methyl-3-(methylsulfonamido)-1H-indazol-7-yl)-4-oxo-3,4-dihydroquinazolin-2-yl)-2-(3,5-difluorophenyl)ethyl)-2-((3bS,4aR)-3-(difluoromethyl)-5,5-difluoro-3b,4,4a,5-tetrahydro-1H-cyclopropa[3,4]cyclopenta[1,2-c]pyrazol-1-yl)acetamide], the concentration for a half-maximal effect (EC50) in data set [1] stood at 0.12 nM. In data set [2], this molecule displayed a half-maximal cytotoxic concentration (CC50) at 4 days of over 500 nM.

`COc1cnc(-c2ccc3c(=O)n(-c4ccc(Cl)c5c(NS(C)(=O)=O)nn(C)c45)c([C@H](Cc4cc(F)cc(F)c4)NC(=O)Cn4nc(C(F)F)c5c4C(F)(F)[C@@H]4C[C@H]54)nc3c2)nc1` (atropisomer, axis not shown; (P)) [Example 34, N—((S)-1-((3P)-3-(4-chloro-1-methyl-3-(methylsulfonamido)-1H-indazol-7-yl)-7-(5-methoxypyrimidin-2-yl)-4-oxo-3,4-dihydroquinazolin-2-yl)-2-(3,5-difluorophenyl)ethyl)-2-((3bS,4aR)-3-(difluoromethyl)-5,5-difluoro-3b,4,4a,5-tetrahydro-1H-cyclopropa[3,4]cyclopenta[1,2-c]pyrazol-1-yl)acetamide]: the EC50 in data set [1] was 0.058 nM. In data set [2], the CC50 at 4 days was over 500 nM.

`Cn1nc(NS(C)(=O)=O)c2c(Cl)ccc(-n3c([C@H](Cc4cc(F)cc(F)c4)NC(=O)Cn4nc(C(F)F)c5c4C(F)(F)[C@@H]4C[C@H]54)nc4cc(-c5cccc(C(C)(C)C)n5)ccc4c3=O)c21` (atropisomer, axis not shown; (P)) [Example 35, N—((S)-1-(7-(6-(tert-butyl)pyridin-2-yl)-(3P)-3-(4-chloro-1-methyl-3-(methylsulfonamido)-1H-indazol-7-yl)-4-oxo-3,4-dihydroquinazolin-2-yl)-2-(3,5-difluorophenyl)ethyl)-2-((3bS,4aR)-3-(difluoromethyl)-5,5-difluoro-3b,4,4a,5-tetrahydro-1H-cyclopropa[3,4]cyclopenta[1,2-c]pyrazol-1-yl)acetamide]: the EC50 in data set [1] was 0.97 nM. The molecule also yielded a CC50 at 4 days in data set [2] of over 500 nM.

On to `CCc1cc(C)nc(-c2ccc3c(=O)n(-c4ccc(Cl)c5c(NS(C)(=O)=O)nn(C)c45)c([C@H](Cc4cc(F)cc(F)c4)NC(=O)Cn4nc(C(F)F)c5c4C(F)(F)[C@@H]4C[C@H]54)nc3c2)n1` (atropisomer, axis not shown; (P)) [Example 36, N—((S)-1-((3P)-3-(4-chloro-1-methyl-3-(methylsulfonamido)-1H-indazol-7-yl)-7-(4-ethyl-6-methylpyrimidin-2-yl)-4-oxo-3,4-dihydroquinazolin-2-yl)-2-(3,5-difluorophenyl)ethyl)-2-((3bS,4aR)-3-(difluoromethyl)-5,5-difluoro-3b,4,4a,5-tetrahydro-1H-cyclopropa[3,4]cyclopenta[1,2-c]pyrazol-1-yl)acetamide], for which the EC50 in data set [1] stood at 0.087 nM. The cytotoxic concentration (CC50) at 4 days in data set [2] is over 500 nM.

As for `Cc1cc(C(C)C)nc(-c2ccc3c(=O)n(-c4ccc(Cl)c5c(NS(C)(=O)=O)nn(C)c45)c([C@H](Cc4cc(F)cc(F)c4)NC(=O)Cn4nc(C(F)F)c5c4C(F)(F)[C@@H]4C[C@H]54)nc3c2)n1` (atropisomer, axis not shown; (P)) [Example 37, N—((S)-1-((3P)-3-(4-chloro-1-methyl-3-(methylsulfonamido)-1H-indazol-7-yl)-7-(4-isopropyl-6-methylpyrimidin-2-yl)-4-oxo-3,4-dihydroquinazolin-2-yl)-2-(3,5-difluorophenyl)ethyl)-2-((3bS,4aR)-3-(difluoromethyl)-5,5-difluoro-3b,4,4a,5-tetrahydro-1H-cyclopropa[3,4]cyclopenta[1,2-c]pyrazol-1-yl)acetamide], in data set [1], the concentration for a half-maximal effect (EC50) was 0.16 nM. The molecule further registered a CC50 at 4 days in data set [2] of over 500 nM.

Turning to `CCc1cc(CC)nc(-c2ccc3c(=O)n(-c4ccc(Cl)c5c(NS(C)(=O)=O)nn(C)c45)c([C@H](Cc4cc(F)cc(F)c4)NC(=O)Cn4nc(C(F)F)c5c4C(F)(F)[C@@H]4C[C@H]54)nc3c2)n1` (atropisomer, axis not shown; (P)) [Example 38, N—((S)-1-((3P)-3-(4-chloro-1-methyl-3-(methylsulfonamido)-1H-indazol-7-yl)-7-(4,6-diethylpyrimidin-2-yl)-4-oxo-3,4-dihydroquinazolin-2-yl)-2-(3,5-difluorophenyl)ethyl)-2-((3bS,4aR)-3-(difluoromethyl)-5,5-difluoro-3b,4,4a,5-tetrahydro-1H-cyclopropa[3,4]cyclopenta[1,2-c]pyrazol-1-yl)acetamide], the EC50 in data set [1] came out at 0.21 nM. Also, the half-maximal cytotoxic concentration (CC50) at 4 days in data set [2] was over 500 nM.

`COc1ncc(-c2ccc3c(=O)n(-c4ccc(Cl)c5c(NS(C)(=O)=O)nn(C)c45)c([C@H](Cc4cc(F)cc(F)c4)NC(=O)Cn4nc(C(F)F)c5c4C(F)(F)[C@@H]4C[C@H]54)nc3c2)cn1` (atropisomer, axis not shown; (P)) [Example 39, N—((S)-1-((3P)-3-(4-chloro-1-methyl-3-(methylsulfonamido)-1H-indazol-7-yl)-7-(2-methoxypyrimidin-5-yl)-4-oxo-3,4-dihydroquinazolin-2-yl)-2-(3,5-difluorophenyl)ethyl)-2-((3bS,4aR)-3-(difluoromethyl)-5,5-difluoro-3b,4,4a,5-tetrahydro-1H-cyclopropa[3,4]cyclopenta[1,2-c]pyrazol-1-yl)acetamide]: the EC50 in data set [1] was found to be 0.042 nM. The same molecule displayed a CC50 at 4 days in data set [2] of over 500 nM.

With `Cc1ncnc(C)c1-c1ccc2c(=O)n(-c3ccc(Cl)c4c(NS(C)(=O)=O)nn(C)c34)c([C@H](Cc3cc(F)cc(F)c3)NC(=O)Cn3nc(C(F)F)c4c3C(F)(F)[C@@H]3C[C@H]43)nc2c1` (atropisomer, axis not shown; (P)) [Example 40, N—((S)-1-((3P)-3-(4-chloro-1-methyl-3-(methylsulfonamido)-1H-indazol-7-yl)-7-(4,6-dimethylpyrimidin-5-yl)-4-oxo-3,4-dihydroquinazolin-2-yl)-2-(3,5-difluorophenyl)ethyl)-2-((3bS,4aR)-3-(difluoromethyl)-5,5-difluoro-3b,4,4a,5-tetrahydro-1H-cyclopropa[3,4]cyclopenta[1,2-c]pyrazol-1-yl)acetamide], the concentration giving a half-maximal response (EC50) in data set [1] was 0.053 nM. For the same molecule, the half-maximal cytotoxic concentration (CC50) at 4 days in data set [2] is over 500 nM.

Take `Cn1nc(NS(C)(=O)=O)c2c(Cl)ccc(-n3c([C@H](Cc4cc(F)cc(F)c4)NC(=O)Cn4nc(C(F)F)c5c4C(F)(F)[C@@H]4C[C@H]54)nc4cc(-c5cccc(C6CC6)n5)ccc4c3=O)c21` (atropisomer, axis not shown; (P)) [Example 41, N—((S)-1-((3P)-3-(4-chloro-1-methyl-3-(methylsulfonamido)-1H-indazol-7-yl)-7-(6-cyclopropylpyridin-2-yl)-4-oxo-3,4-dihydroquinazolin-2-yl)-2-(3,5-difluorophenyl)ethyl)-2-((3bS,4aR)-3-(difluoromethyl)-5,5-difluoro-3b,4,4a,5-tetrahydro-1H-cyclopropa[3,4]cyclopenta[1,2-c]pyrazol-1-yl)acetamide]: the EC50 in data set [1] was found to be 0.33 nM. Also, the CC50 at 4 days in data set [2] is over 500 nM.

`Cc1ncncc1-c1ccc2c(=O)n(-c3ccc(Cl)c4c(NS(C)(=O)=O)nn(C)c34)c([C@H](Cc3cc(F)cc(F)c3)NC(=O)Cn3nc(C(F)F)c4c3C(F)(F)[C@@H]3C[C@H]43)nc2c1` (atropisomer, axis not shown; (P)) [Example 42, N—((S)-1-((3P)-3-(4-chloro-1-methyl-3-(methylsulfonamido)-1H-indazol-7-yl)-7-(4-methylpyrimidin-5-yl)-4-oxo-3,4-dihydroquinazolin-2-yl)-2-(3,5-difluorophenyl)ethyl)-2-((3bS,4aR)-3-(difluoromethyl)-5,5-difluoro-3b,4,4a,5-tetrahydro-1H-cyclopropa[3,4]cyclopenta[1,2-c]pyrazol-1-yl)acetamide]: the concentration for a half-maximal effect (EC50) in data set [1] amounted to 0.074 nM. In data set [2], the 50% cytotoxic concentration (CC50) at 4 days was over 500 nM.

On to `CCc1ccnc(-c2ccc3c(=O)n(-c4ccc(Cl)c5c(NS(C)(=O)=O)nn(C)c45)c([C@H](Cc4cc(F)cc(F)c4)NC(=O)Cn4nc(C(F)F)c5c4C(F)(F)[C@@H]4C[C@H]54)nc3c2)n1` (atropisomer, axis not shown; (P)) [Example 43, N—((S)-1-((3P)-3-(4-chloro-1-methyl-3-(methylsulfonamido)-1H-indazol-7-yl)-7-(4-ethylpyrimidin-2-yl)-4-oxo-3,4-dihydroquinazolin-2-yl)-2-(3,5-difluorophenyl)ethyl)-2-((3bS,4aR)-3-(difluoromethyl)-5,5-difluoro-3b,4,4a,5-tetrahydro-1H-cyclopropa[3,4]cyclopenta[1,2-c]pyrazol-1-yl)acetamide], for which the half-maximal effective concentration (EC50) in data set [1] came out at 0.058 nM. Moreover, in data set [2], the CC50 at 4 days is over 500 nM.

What is called EC50 is the concentration that produces a half-maximal response. What is called CC50 is the concentration that lowers cell viability or growth by half. A higher CC50 goes with better tolerance by the cells.
